We go through twelve molecules from US20160002310A1, “MODIFIED INGAP PEPTIDES FOR TREATING DIABETES” (THE ROYAL INSTITUTE FOR THE ADVANCEMENT OF LEARNING/MCGILL …, priority 2013, published 2016).

One series concerns Erk½. Description: Effect of pharmacological inhibitors on INGAP-induced Erk½ phosphorylation in RIN-m5F cells. Conditions: for Effect of inhibitor on INGAP-induced Erk½ phosphorylation: inhibitor pretreatment, 10 min growth factor. The class given is cell-based, rat. Here is the method:
1×10^6 cells were plated in 60 mm plates for 48 hours followed by a 24-h starvation in serum-free medium. Prior to addition of growth factors, cells were pretreated for 30-40 min with the indicated inhibitors, except for Pertussis Toxin (Ptx)(24 h pretreatment). After a 10 min treatment with growth factors, cells were placed on ice and lysed, as described in the Experimental Procedures. Blots (30 μg of proteins) were incubated with Phospho-Erk½ antibody (or with total Erk antibody after stripping) and developed using ECL reagent. Quantification of Erk phosphorylation relative to total Erk and time 0 min control (=1, shown as a dotted line) was performed as described above. (A): Inhibitors of GPCR (Ptx, 100 ng/m1), adenylate cyclase (SQ22536, 250 μM) and PKA (PKi, 100nM; H89, 1μM). (B): inhibitors of PKC (Bis, 1 μM), PI3K (Wm, 100 nM), Src(PP2, 100nM), EGFR(AG1478, 100nM) and Raf Inhibitor l(R-1, 100nM), or DMSO as a solvent (*: p<0.05).
(§1) To investigate signaling events implicated in INGAP induced proliferation, we employed specific pharmacological inhibitors of Raf (Raf inhibitor 1), PI3 K (wortmannin), PKC (Bis), PKA (H89, PKi), Adenylate cyclase (SQ22536), Src (PP2) and EGFR (AG1478). In addition, Pertussis toxin (Ptx) was used to examine whether INGAP actions were mediated by a GPCR. Effectiveness of these inhibitors was judged by Erk½ phosphorylation after 10 min of treatment with INGAP or EGF or Ex-4, and by BrdU incorporation after 24 h.

For series [1], the system named is RIN-m5F cells. Description: BrdU incorporation (proliferation) in RIN-m5F cells, 24 h. Type of series: cell-based, rat. The note with it: positive control. The procedure:
(A): INGAP increased BrdU incorporation. RIN-m5F cells were treated with indicated amounts of INGAP-P or r-INGAP for 24 h in chamber slides. Exendin 4 (Ex4) and EGF were used as controls. 50 μM BrdU was added for the last three hours of treatment followed by fixation in methanol and immunostaining for BrdU. Data are presented as a ratio of BrdU(+) cells (%) in INGAP-treated to untreated control. Results are means±S.E. of three independent experiments (*: p<0.05, §: p<0.001, compared to untreated control). (B): INGAP induced phosphorylation of Erk½ in RIN-m5F. RIN-m5F cells (1×10^6) plated in 60 mm tissue culture plates were treated with INGAP for the times indicated. Blots (30 μg protein) were probed with anti-Erk½-Phospho (Thr202/Tyr204) antibody, followed by stripping/reprobing with anti-total Erk½ antibody (Cell Signaling) and quantified by densitometry, using ImageJ software. (C): Quantification of relative Erk½ phosphorylation measured as a ratio of Phospho-Erk½ to total Erk½ and shown as a Fold Change relative to the 0 min time point. […]
Cells plated in 8-well or 4-well chamber slides (5×10^4 or 1×10^5 cells per well) were treated for 24 h with INGAP, EGF or Ex 4, as described above, and 50 μM BrdU was added during the last 3 hours of treatment. […] BrdU-positive and negative nuclei were counted (total 200 per well) and the percentage of BrdU-positive nuclei was calculated (FIG. 36).
In general terms: Incorporation of labelled thymidine or its analogues reports DNA synthesis.

The next series relates to Akt. The experiment in a line: Akt phosphorylation in RIN-m5F cells. The class given is cell-based, rat. The note with it: time course.
Series [2] can be described thus: Stability of 5-FAM labeled INGAP analogs in serum and pancreas of non-diabetic mice after IP injection. The class given is in vivo. Conditions: 500 mg/mouse IP, 10 min to 2 h. The procedure: Prior to the start of the STZ experiments, we tested the stability of INGAP analogs in the serum of non-diabetic mice by injecting 5-FAM labeled INGAP analogs (custom made at Canpeptide, Pointe Claire) at […] IP . The analogs were FAM labeled to determine the post-injection time needed for the peptides to reach the pancreas and to potentially identify the target cells. Mice were sacrificed after 10 min, 30 min, 1 h and 2 h (three mice per group) and blood and tissue samples were collected for processing. Blood serum was precipitated with methanol (1:3) to remove serum proteins and the resulting supernatant was analyzed by HPLC to detect presence of INGAP peptides.
These experiments need to be repeated by using cryosections vs paraffin section to minimize a potential loss of the fluorescence.

The subject of series [3] is STZ (streptozotocin)-induced diabetes. Set-up: species or system mice. The note with it: mouse, in vivo, ip. Here is the method:
In this part of the study, we used a well established model of STZ (streptozotocin)-induced diabetes, resulting in a substantial destruction of beta cell mass. Previous studies conducted in our lab have shown islet neogenic effects of INGAP-peptide (15 L) and INGAP protein after the 8-week administration daily.
Referring to FIG. 42, C57BL/6 J mice (Charles River) 20-25 g, were rendered diabetic by a single injection of 150 mg/kg of STZ. The animals with blood glycemias of 15-30 mM after 7 days were used for the experiment. At 7 days, mice were randomized into 5 groups, 10 mice per group, equal representation of each glycemia level, (average glycemia per group being 24.4+0.0167 mM) and were treated with […] of one of the analogs, IP, daily for 10 weeks. Blood glycemia values were taken weekly from the tip of the tail (fasting and/or non-fasting). The weight of animals was also taken weekly.
After 10 weeks of treatment, the animals were sacrificed and the pancreata were weighed and processed for RNA extraction (still ongoing) and Immunocytochemistry.

The nature of series [4]: Peptide stability in RPMI-1640 medium with 25% FBS, HPLC. The class given is in vitro ADME. The note with it: for Comparative peptide stability in FBS: 50 μM peptide; for half-life at 50 μM: bovine. Here is the method:
50 μM peptides were incubated in RPMI-1640 medium with 25% FBS for the times indicated. Following ethanol precipitation of serum proteins, samples were analyzed by HPLC. To compare dynamics of peptide degradation HPLC profiles were superimposed as shown.
50 μM INGAP-PC and INGAP 19C were incubated in RPMI-1640 medium with 25% FBS for the times indicated. Following ethanol precipitation of serum proteins, samples were analyzed by HPLC. To compare dynamics of peptide degradation, HPLC profiles were superimposed as shown.
Degradation profiles of INGAP-P and INGAP-19 peptides in presence of serum were determined (FIG. 20). 50 μM peptides were incubated in RPMI-1640 medium with 25% FBS for the times indicated. Following ethanol precipitation of serum proteins, samples were analyzed by HPLC. To compare dynamics of peptide degradation HPLC profiles were superimposed as shown.
Time-course studies of in vitro incubation of INGAP-PC and INGAP-19C peptides in FBS were also performed (FIG. 21). 50 μM INGAP-PC and INGAP 19C were incubated in RPMI-1640 medium with 25% FBS for the times indicated. Following ethanol precipitation of serum proteins, samples were analyzed by HPLC. To compare dynamics of peptide degradation, HPLC profiles were superimposed as shown.

Series [5] deals with RIN-m5F cells. The experiment in a line: Effect of pharmacological inhibitors on INGAP-induced BrdU incorporation in RIN-m5F cells. Type of series: cell-based, rat. Conditions: inhibitor pretreatment, 24 h. Here is the method:
Cells were plated in chamber slides and subjected to 30−40 min pretreatment with the indicated inhibitors prior to the addition of growth factors and incubated for 24 h. […] BrdU was added for the last three hours of treatment followed by fixation in Methanol and immunostaining for BrdU. Data are presented as a ratio of BrdU(+) cells (%) in treated versus untreated control. Results are means±S.E. of three independent experiments (*: p<0.05, †: p<0.001).
as §1

Entries after “also recorded” stand apart in the source; their conditions may differ. Positions of bridges follow the written chain, without caps; N, C: chain ends. Residues, ends and D or L forms follow the SMILES beside them. No end group written: not given here.

As for `Nc1ncnc2c1ncn2C1CCCO1` (stereo not drawn) [SQ22536], the “Effect of inhibitor on INGAP-induced Erk½ phosphorylation” value in the series on Erk½ is “slightly increased it”.
Take Exendin 4: in the series on RIN-m5F cells [1] (10 nM), the “BrdU incorporation, increase compared to negative control” value is listed as 1.56 ×. The Akt phosphorylation entry in the series on Akt was “strongest activation of Akt”.
For Pertussis toxin [Ptx], the “Inhibition of INGAP-induced activation of Erk½” value in the series with Erk½ (24 h exposure to inhibitor, 10 min INGAP) is reported as 40%.
Consider `CC[C@H](C)[C@@H]1NC(=O)[C@H](Cc2c[nH]c3ccccc23)NC(=O)[C@H]([C@@H](C)CC)NC(=O)[C@@H](N)CSSC[C@@H](C(=O)O)NC(=O)[C@H](Cc2c[nH]c3ccccc23)NC(=O)CNC(=O)[C@H](CO)NC(=O)CNC(=O)[C@H](CC(N)=O)NC(=O)[C@@H]2CCCN2C(=O)[C@H](CC(C)C)NC(=O)[C@H]([C@@H](C)O)NC(=O)CNC(=O)[C@H](Cc2c[nH]cn2)NC(=O)[C@H](CO)NC(=O)[C@@H]2CCCN2C(=O)[C@H](CC(=O)O)NC(=O)[C@H](Cc2c[nH]cn2)NC(=O)[C@H](CC(C)C)NC(=O)CNC1=O` [INGAP-19C] (H-CIWIGLHDPSHGTLPNGSGWC-OH; disulfide 1-21), for which the “Presence of peptide in blood serum after injection (HPLC)” value in series [2] is “still detectable at 2 h”. The “Losses of animals in group” value in series [3] is on record as 1. For the same molecule, in series [4] (RPMI-1640 with 25% FBS), the “Comparative peptide stability in FBS” value is reported as “highest stability; also recorded: more stable than linear 15-mer (INGAP-P) or 19-mer (INGAP-19) peptides”. Moreover, the “Degradation in presence of serum” value in series [4] (48 h, 50 μM, RPMI-1640 with 25% FBS) is on record as “no degradation”. For the same molecule, the “Time stable in culture medium” value in series [4] (culture medium, preliminary HPLC data) is recorded as “up to 48 h”.
For `COc1cccc(-c2cc(=O)c3ccccc3o2)c1N` [PD98059], in the series on RIN-m5F cells [5], the “Effect of inhibitor on BrdU incorporation induced by growth factors” value (“Effect of inhibitor … by growth factors” for short) is “inhibition”. Moreover, the “Effect of inhibitor on INGAP-induced Erk½ phosphorylation” value with Erk½ is recorded as “inhibition”.
For the molecule “IWIGLHDPSHGTLPNGSGW [INGAP-19, N′-IWIGLHDPSHGTLPNGSGW-C′]”, in series [2], the “Presence of peptide in blood serum after injection (HPLC)” value is “undetectable at 1 h”. In addition, the “Comparative peptide stability in FBS” value in series [4] (RPMI-1640 with 25% FBS) is listed as “no advantage of INGAP-19 over INGAP-P”. In addition, in series [4] (fetal bovine serum (25%) in RPMI-1640 culture medium, culture medium, preliminary HPLC data), the half-life (usually the time needed for the level to fall by half in the phase considered) at 50 μM lay in the range of 4 to 6 h.
As for “EGF: positive control growth factor, signals through a classical RTK pathway”, the “BrdU incorporation, increase compared to negative control” value with RIN-m5F cells [1] (10 ng/ml) worked out at 1.49 ×. Besides, the Akt phosphorylation entry in the series on Akt is given as “early activation of Akt”.
Turning to `COc1cc2ncnc(Nc3cccc(Cl)c3)c2cc1OC` [AG1478], in the series on Erk½, the “Effect of inhibitor on INGAP-induced Erk½ phosphorylation” value is given as “not affected”.
In the case of “IGLHDPSHGTLPNGS [INGAP-P, N′-IGLHDPSHGTLPNGS-C′]”, the “Comparative peptide stability in FBS” value in series [4] (RPMI-1640 with 25% FBS) is given as “degraded at a similar rate”. This molecule also yielded a half-life at 50 μM in series [4] (culture medium (RPMI-1640) with 25% fetal bovine serum, culture medium, preliminary HPLC data) of 4 to 6 h.
With `O=S(=O)(NCCNC/C=C/c1ccc(Br)cc1)c1cccc2cnccc12` [H89], the “Effect of inhibitor … by growth factors” value with RIN-m5F cells [5] is given as “reduced BrdU incorporation in rINGAP treated cells”.
For `CC[C@H](C)[C@@H]1NC(=O)[C@@H](N)CSSC[C@@H](C(=O)O)NC(=O)[C@H](CO)NC(=O)CNC(=O)[C@H](CC(N)=O)NC(=O)[C@@H]2CCCN2C(=O)[C@H](CC(C)C)NC(=O)[C@H]([C@@H](C)O)NC(=O)CNC(=O)[C@H](Cc2c[nH]cn2)NC(=O)[C@H](CO)NC(=O)[C@@H]2CCCN2C(=O)[C@H](CC(=O)O)NC(=O)[C@H](Cc2c[nH]cn2)NC(=O)[C@H](CC(C)C)NC(=O)CNC1=O` [INGAP-PC, N′-CIGLHDPSHGTLPNGSC-C′] (H-CIGLHDPSHGTLPNGSC-OH; disulfide 1-17), the “Losses of animals in group” value in series [3] was “no losses”. In addition, the half-life in series [4] (buffer, culture medium, preliminary HPLC data) lay within 4 to 6 h.
In the case of `CC(C)(C)n1nc(-c2ccc(Cl)cc2)c2c(N)ncnc21` [PP2], the “Effect of inhibitor … by growth factors” value with RIN-m5F cells [5] was “inhibited both Erk½ phosphorylation (FIG. 8B) and proliferation (FIG. 16) stimulated by r-INGAP, but not by INGAP-P”. Besides, in the series with Erk½, the “Effect of inhibitor on INGAP-induced Erk½ phosphorylation” value is “inhibited both Erk½ phosphorylation (FIG. 8B) and proliferation (FIG. 16) stimulated by r-INGAP, but not by INGAP-P”.
